In brackets after ≈: the same amount, converted by molar mass.
What was measured:
Format in all cases: functional
Staphylococcus aureus [1] = experiment: Antibacterial activity against Staphylococcus aureus ATCC 13709
Escherichia coli [2] = experiment: Antibacterial activity against Escherichia coli ATCC 25922
[3] = tested on: Staphylococcus epidermidis; experiment: Antibacterial activity against Staphylococcus epidermidis 1269663
Escherichia coli [4] = experiment: Antibacterial activity against vancomycin-, ciprofloxacin-, gentamicin-sensitive Escherichia coli 1269640
Staphylococcus aureus [5] = experiment: Antibacterial activity against vancomycin-intermediate and ciprofloxacin-, gentamicin-resistant Staphylococcus aureus 1269618
[6] = tested on: Staphylococcus epidermidis; experiment: Antibacterial activity against oxymycin and gentamicin-resistant Staphylococcus epidermidis 1269677
Escherichia coli [7] = experiment: Antibacterial activity against vancomycin-, ciprofloxacin-, gentamicin-resistant Escherichia coli 1269653
[8] = tested on: Staphylococcus epidermidis; experiment: Antibacterial activity against oxymycin-, gentamicin-, levofloxacin-resistant Staphylococcus epidermidis 1269676
Escherichia coli [9] = experiment: Antibacterial activity against Escherichia coli 0157:H07
Staphylococcus aureus [10] = experiment: Antibacterial activity against Staphylococcus aureus ATCC […]
Escherichia coli [11] = experiment: Antibacterial activity against vancomycin-, ciprofloxacin-, gentamicin-resistant Escherichia coli 1269620
[12] = tested on: Staphylococcus epidermidis; experiment: Antibacterial activity against oxymycin-, gentamicin-, levofloxacin-resistant Staphylococcus epidermidis 1269680
[13] = tested on: Staphylococcus epidermidis; experiment: Antibacterial activity against oxymycin-, gentamicin-, levofloxacin-resistant Staphylococcus epidermidis 1269675
Staphylococcus aureus [14] = experiment: Antibacterial activity against vancomycin-sensitive and oxymycin-, ciprofloxacin-, gentamicin-resistant Staphylococcus aureus 9269619
Staphylococcus aureus [15] = experiment: Antibacterial activity against oxymycin-sensitive Staphylococcus aureus 1269669
Escherichia coli [16] = experiment: Antibacterial activity against vancomycin-, ciprofloxacin-, gentamicin-resistant Escherichia coli 1269652
Staphylococcus aureus [17] = experiment: Antibacterial activity against vancomycin-intermediate and ciprofloxacin-, gentamicin-resistant Staphylococcus aureus 1269616
Staphylococcus aureus [18] = experiment: Antibacterial activity against vancomycin-, ciprofloxacin-, gentamicin-resistant Staphylococcus aureus 1269617
Escherichia coli [19] = experiment: Antibacterial activity against vancomycin-, ciprofloxacin-, gentamicin-resistant Escherichia coli 1269621
Staphylococcus aureus [20] = experiment: Antibacterial activity against oxymycin-sensitive Staphylococcus aureus 1269670
Staphylococcus warneri = experiment: Antibacterial activity against Staphylococcus warneri 1269686
Staphylococcus aureus [21] = experiment: Antibacterial activity against vancomycin-, ciprofloxacin-, gentamicin-resistant Staphylococcus aureus 1269615
Staphylococcus capitis = experiment: Antibacterial activity against Staphylococcus capitis 1269682

Structure (SMILES)	MIC (Staphylococcus aureus [1]) [µg/mL]	MIC (Escherichia coli [2]) [µg/mL]	MIC [3] [µg/mL]	MIC (Escherichia coli [4]) [µg/mL]	MIC (Staphylococcus aureus [5]) [µg/mL]	MIC [6] [µg/mL]	MIC (Escherichia coli [7]) [µg/mL]	MIC [8] [µg/mL]	MIC (Escherichia coli [9]) [µg/mL]	MIC (Staphylococcus aureus [10]) [µg/mL]	MIC (Escherichia coli [11]) [µg/mL]	MIC [12] [µg/mL]	MIC [13] [µg/mL]	MIC (Staphylococcus aureus [14]) [µg/mL]	MIC (Staphylococcus aureus [15]) [µg/mL]	MIC (Escherichia coli [16]) [µg/mL]	MIC (Staphylococcus aureus [17]) [µg/mL]	MIC (Staphylococcus aureus [18]) [µg/mL]	MIC (Escherichia coli [19]) [µg/mL]	MIC (Staphylococcus aureus [20]) [µg/mL]	further results
NC[C@@H]1O[C@H](O[C@H]2[C@@H](O)[C@H](O[C@@H]3[C@@H](O)[C@H](N)C[C@H](N)[C@H]3O[C@H]3O[C@H](CN)[C@@H](O)[C@H](O)[C@H]3N)O[C@@H]2CO)[C@H](N)[C@@H](O)[C@@H]1O [FRAMYCETIN]	1 (≈ 1.63 µM)	3 (≈ 4.88 µM)																			
NC[C@@H]1O[C@H](O[C@H]2[C@@H](O)[C@H](O[C@@H]3[C@@H](O)[C@H](N)C[C@H](N)[C@H]3O[C@H]3O[C@H](CO)CC[C@H]3N)O[C@@H]2CO)[C@H](N)[C@@H](O)[C@@H]1O	5 (≈ 8.57 µM)	20 (≈ 34.3 µM)																			
NC[C@@H]1O[C@H](O[C@H]2[C@@H](OCCNCCc3ccccc3)[C@@H](O[C@H]3[C@@H](O)[C@@H](N)C[C@@H](N)[C@H]3O[C@H]3O[C@H](CO)CC[C@H]3N)O[C@@H]2CO)[C@H](N)[C@@H](O)[C@@H]1O	1 (≈ 1.37 µM)	40 (≈ 54.7 µM)																			
NCC[C@@H](O)C(=O)N[C@H]1C[C@H](N)[C@@H](O[C@H]2O[C@H](CO)[C@@H](O)[C@H](O)[C@H]2N)[C@@H](O[C@H]2O[C@H](CO)[C@@H](O[C@H]3O[C@@H](CN)[C@@H](O)[C@H](O)[C@H]3N)[C@H]2OCCNCCc2ccccc2)[C@H]1O	0.6 (≈ 0.694 µM)	2 (≈ 2.31 µM)	< 0.12	4 (≈ 4.63 µM)	128 (≈ 148 µM)	< 0.12	2 (≈ 2.31 µM)	< 0.12	1 (≈ 1.16 µM)	0.25 (≈ 0.289 µM)	1 (≈ 1.16 µM)	< 0.12	16 (≈ 18.5 µM)	> 128	< 0.12	8 (≈ 9.26 µM)	128 (≈ 148 µM)	32 (≈ 37 µM)	2 (≈ 2.31 µM)	< 0.12	MIC (Staphylococcus warneri): < 0.12 µg/mL; MIC (Staphylococcus aureus [21]): 64 µg/mL (≈ 74.1 µM); MIC (Staphylococcus capitis): < 0.12 µg/mL
NCC[C@H](O)C(=O)N[C@@H]1C[C@H](N)[C@@H](O[C@H]2O[C@H](CN)[C@@H](O)[C@H](O)[C@H]2N)[C@H](O[C@@H]2O[C@H](CO)[C@@H](O[C@H]3O[C@@H](CN)[C@@H](O)[C@H](O)[C@H]3N)[C@H]2O)[C@H]1O	2.5 (≈ 3.49 µM)	2.5 (≈ 3.49 µM)																			
NCC[C@H](O)C(=O)N[C@@H]1C[C@H](N)[C@@H](O[C@H]2O[C@H](CO)CC[C@H]2N)[C@H](O[C@@H]2O[C@H](CO)[C@@H](O[C@H]3O[C@@H](CN)[C@@H](O)[C@H](O)[C@H]3N)[C@H]2OCCNCCc2ccccc2)[C@H]1O	0.6 (≈ 0.721 µM)	8 (≈ 9.62 µM)	< 0.12	8 (≈ 9.62 µM)	0.5 (≈ 0.601 µM)	< 0.12	8 (≈ 9.62 µM)	< 0.12	1 (≈ 1.2 µM)	> 0.12	4 (≈ 4.81 µM)	< 0.12	< 0.12	1 (≈ 1.2 µM)	0.25 (≈ 0.3 µM)	16 (≈ 19.2 µM)	0.5 (≈ 0.601 µM)	0.25 (≈ 0.3 µM)	4 (≈ 4.81 µM)	0.25 (≈ 0.3 µM)	MIC (Staphylococcus warneri): < 0.12 µg/mL; MIC (Staphylococcus aureus [21]): 0.25 µg/mL (≈ 0.3 µM); MIC (Staphylococcus capitis): < 0.12 µg/mL
NC[C@@H]1O[C@H](O[C@H]2[C@@H](OCCNCCc3ccccc3)[C@H](O[C@@H]3[C@@H](O)[C@H](N)C[C@H](N)[C@H]3O[C@H]3O[C@H](CO)[C@@H](O)[C@H](O)[C@H]3N)O[C@@H]2CO)[C@H](N)[C@@H](O)[C@@H]1O	0.3 (≈ 0.393 µM)	3 (≈ 3.93 µM)																			
NC[C@@H]1O[C@H](O[C@H]2[C@@H](O)[C@H](O[C@@H]3[C@@H](O)[C@H](N)C[C@H](N)[C@H]3O[C@H]3O[C@H](CO)[C@@H](O)[C@H](O)[C@H]3N)O[C@@H]2CO)[C@H](N)[C@@H](O)[C@@H]1O [PAROMOMYCIN]	1 (≈ 1.62 µM)	3 (≈ 4.87 µM)																			
NCC[C@H](O)C(=O)N[C@@H]1C[C@H](N)[C@@H](O[C@H]2O[C@H](CN)[C@@H](O)[C@H](O)[C@H]2O)[C@H](O)[C@H]1O[C@H]1O[C@H](CO)[C@@H](O)[C@H](N)[C@H]1O [AMIKACIN]		2 (≈ 3.42 µM)	0.8 (≈ 1.37 µM)	8 (≈ 13.7 µM)	16 (≈ 27.3 µM)	4 (≈ 6.83 µM)	8 (≈ 13.7 µM)	4 (≈ 6.83 µM)	1 (≈ 1.71 µM)	2 (≈ 3.42 µM)	2 (≈ 3.42 µM)	8 (≈ 13.7 µM)	8 (≈ 13.7 µM)	16 (≈ 27.3 µM)	2 (≈ 3.42 µM)	64 (≈ 109 µM)	16 (≈ 27.3 µM)	8 (≈ 13.7 µM)	2 (≈ 3.42 µM)	1 (≈ 1.71 µM)	MIC (Staphylococcus warneri): < 0.25 µg/mL; MIC (Staphylococcus aureus [21]): 16 µg/mL (≈ 27.3 µM); MIC (Staphylococcus capitis): 0.5 µg/mL (≈ 0.854 µM)
NCC[C@H](O)C(=O)N[C@@H]1C[C@H](N)[C@@H](O[C@H]2O[C@H](CO)[C@@H](O)[C@H](O)[C@H]2N)[C@H](O[C@@H]2O[C@H](CO)[C@@H](O[C@H]3O[C@@H](CN)[C@@H](O)[C@H](O)[C@H]3N)[C@H]2O)[C@H]1O	1.3 (≈ 1.81 µM)	8 (≈ 11.2 µM)	1 (≈ 1.4 µM)	16 (≈ 22.3 µM)	> 128	16 (≈ 22.3 µM)	8 (≈ 11.2 µM)	0.5 (≈ 0.698 µM)	8 (≈ 11.2 µM)	4 (≈ 5.58 µM)	8 (≈ 11.2 µM)	1 (≈ 1.4 µM)	64 (≈ 89.3 µM)	> 128	4 (≈ 5.58 µM)	32 (≈ 44.6 µM)	> 128	> 128	8 (≈ 11.2 µM)	4 (≈ 5.58 µM)	MIC (Staphylococcus warneri): 0.25 µg/mL (≈ 0.349 µM); MIC (Staphylococcus aureus [21]): > 128 µg/mL; MIC (Staphylococcus capitis): 0.5 µg/mL (≈ 0.698 µM)
CN[C@@H]1[C@@H](O)[C@@H](O[C@@H]2[C@@H](O)[C@H](O[C@H]3O[C@H]([C@@H](C)NC)CC[C@H]3N)[C@@H](N)C[C@H]2N)OC[C@]1(C)O [GENTAMICIN C1]		1 (≈ 2.09 µM)	< 0.12	4 (≈ 8.38 µM)	64 (≈ 134 µM)	16 (≈ 33.5 µM)	> 128	32 (≈ 67 µM)	0.5 (≈ 1.05 µM)	0.5 (≈ 1.05 µM)	64 (≈ 134 µM)	64 (≈ 134 µM)	32 (≈ 67 µM)	128 (≈ 268 µM)	0.25 (≈ 0.523 µM)	> 128	64 (≈ 134 µM)	32 (≈ 67 µM)	64 (≈ 134 µM)	0.25 (≈ 0.523 µM)	MIC (Staphylococcus warneri): < 0.12 µg/mL; MIC (Staphylococcus aureus [21]): 32 µg/mL (≈ 67 µM); MIC (Staphylococcus capitis): 0.12 µg/mL (≈ 0.251 µM)
